Measurements published in patent publication US10597387B2, “Methods to treat lymphoplasmacytic lymphoma” (Dana-Farber Cancer Institute, Inc., priority 2013, dated 2020).
Where two headings read alike, the source gives them in different places.

What was measured:
Experiment in all cases: KiNativ kinase profiling
[1] = biological target: MAP3K4 (Homo sapiens (Human), UniProt Q9Y6R4); format: binding; settings: Lys2, A375 cells, read-out: inhibition of kinase labeling
[2] = biological target: CDK2 (Homo sapiens (Human), UniProt P24941); format: binding; settings: Lys2, A375 cells, read-out: inhibition of kinase labeling
[3] = biological target: MST3 (Homo sapiens (Human), UniProt Q9Y6E0); format: binding; settings: Lys2, A375 cells, read-out: inhibition of kinase labeling
[4] = biological target: NDR1 (Homo sapiens (Human), UniProt Q15208); format: binding; settings: Lys1, A375 cells, read-out: inhibition of kinase labeling
[5] = biological target: MARK3 (Homo sapiens (Human), UniProt P27448); format: binding; settings: Lys1, A375 cells, read-out: inhibition of kinase labeling
[6] = biological target: MAP2K3 (Homo sapiens (Human), UniProt P46734); format: binding; settings: Lys2, A375 cells, read-out: inhibition of kinase labeling
[7] = biological target: CDK5 (Homo sapiens (Human), UniProt Q00535); format: binding; settings: Lys2, A375 cells, read-out: inhibition of kinase labeling
[8] = biological target: ATR (Homo sapiens (Human), UniProt Q13535); format: binding; settings: ATP, A375 cells, read-out: inhibition of kinase labeling
[9] = biological target: LOK (Homo sapiens (Human), UniProt O94804); format: binding; settings: Lys2, A375 cells, read-out: inhibition of kinase labeling
[10] = biological target: MST1 (Homo sapiens (Human), UniProt Q13043); format: binding; settings: Lys1, A375 cells, read-out: inhibition of kinase labeling
[11] = biological target: MAP2K4 (Homo sapiens (Human), UniProt P45985); format: binding; settings: Lys2, A375 cells, read-out: inhibition of kinase labeling
[12] = biological target: STLK5 (Homo sapiens (Human), UniProt Q7RTN6); format: binding; settings: Activation Loop, A375 cells, read-out: inhibition of kinase labeling
[13] = biological target: KHS1 (Homo sapiens (Human), UniProt Q9Y4K4); format: binding; settings: Lys1, A375 cells, read-out: inhibition of kinase labeling
[14] = biological target: MAP3K1 (Homo sapiens (Human), UniProt Q13233); format: binding; settings: Lys2, A375 cells, read-out: inhibition of kinase labeling
[15] = biological target: ACK (Homo sapiens (Human), UniProt Q07912); format: binding; settings: Lys1, A375 cells, read-out: inhibition of kinase labeling
[16] = biological target: CK1g2 (Homo sapiens (Human), UniProt P78368); format: binding; settings: Lys2, A375 cells, read-out: inhibition of kinase labeling
[17] = biological target: CDC2 (Homo sapiens (Human), UniProt P06493); format: binding; settings: Lys2, A375 cells, read-out: inhibition of kinase labeling
[18] = test system: ZC1/HGK, ZC2/TNIK, ZC3/MINK; format: binding, Homo sapiens; settings: Lys2, 1 μM, A375 cells
[19] = biological target: PIK3C3 (Homo sapiens (Human), UniProt Q8NEB9); format: binding; settings: ATP, A375 cells, read-out: inhibition of kinase labeling
[20] = biological target: GSK3B (Homo sapiens (Human), UniProt P49841); format: binding; settings: Lys2, A375 cells, read-out: inhibition of kinase labeling
[21] = biological target: PI4KB (Homo sapiens (Human), UniProt Q9UBF8); format: binding; settings: ATP, A375 cells, read-out: inhibition of kinase labeling
[22] = biological target: PKCi (Homo sapiens (Human), UniProt P41743); format: binding; settings: Lys2, A375 cells, read-out: inhibition of kinase labeling
[23] = biological target: RSK1 domain2 (Homo sapiens (Human), UniProt Q15418); format: binding; settings: Lys2, A375 cells, read-out: inhibition of kinase labeling
[24] = biological target: PKR (Homo sapiens (Human), UniProt P19525); format: binding; settings: Lys2, A375 cells, read-out: inhibition of kinase labeling
[25] = biological target: MAP2K5 (Homo sapiens (Human), UniProt Q13163); format: binding; settings: Lys2, A375 cells, read-out: inhibition of kinase labeling
[26] = biological target: NEK7 (Homo sapiens (Human), UniProt Q8TDX7); format: binding; settings: Lys1, A375 cells, read-out: inhibition of kinase labeling
[27] = biological target: PFTAIRE1 (Homo sapiens (Human), UniProt O94921); format: binding; settings: Lys1, A375 cells, read-out: inhibition of kinase labeling
[28] = test system: MAP2K1, MAP2K2; format: binding, Homo sapiens; settings: Lys2, 1 μM, A375 cells
[29] = biological target: MAP3K5 (Homo sapiens (Human), UniProt Q99683); format: binding; settings: Lys2, A375 cells, read-out: inhibition of kinase labeling
[30] = biological target: BTK (Homo sapiens (Human), UniProt Q06187); format: binding; settings: read-out: inhibition of kinase labeling
[31] = biological target: NEK9 (Homo sapiens (Human), UniProt Q8TD19); format: binding; settings: Lys2, A375 cells, read-out: inhibition of kinase labeling
[32] = biological target: PKN1 (Homo sapiens (Human), UniProt Q16512); format: binding; settings: Lys1, A375 cells, read-out: inhibition of kinase labeling
[33] = biological target: SYK (Homo sapiens (Human), UniProt P43405); format: binding; settings: read-out: inhibition of kinase labeling
[34] = test system: IKKe, TBK1; format: binding, Homo sapiens; settings: Lys2, 1 μM, A375 cells
[35] = biological target: JAK1 domain2 (Homo sapiens (Human), UniProt P23458); format: binding; settings: Lys1, A375 cells, read-out: inhibition of kinase labeling
[36] = biological target: AurB (Homo sapiens (Human), UniProt Q96GD4); format: binding; settings: Lys1, A375 cells, read-out: inhibition of kinase labeling
[37] = biological target: CaMK4 (Homo sapiens (Human), UniProt Q16566); format: binding; settings: Lys2, A375 cells, read-out: inhibition of kinase labeling
[38] = biological target: TLK2 (Homo sapiens (Human), UniProt Q86UE8); format: binding; settings: Lys2, A375 cells, read-out: inhibition of kinase labeling
[39] = test system: TAO1, TAO3; format: binding, Homo sapiens; settings: Lys2, 1 μM, A375 cells
[40] = test system: NEK6, NEK7; format: binding, Homo sapiens; settings: Lys2, 1 μM, A375 cells
[41] = biological target: BRAF (Homo sapiens (Human), UniProt P15056, V600E); format: binding; settings: Lys2, A375 cells, read-out: inhibition of kinase labeling

Sequence of BTK (Q06187 whole entry): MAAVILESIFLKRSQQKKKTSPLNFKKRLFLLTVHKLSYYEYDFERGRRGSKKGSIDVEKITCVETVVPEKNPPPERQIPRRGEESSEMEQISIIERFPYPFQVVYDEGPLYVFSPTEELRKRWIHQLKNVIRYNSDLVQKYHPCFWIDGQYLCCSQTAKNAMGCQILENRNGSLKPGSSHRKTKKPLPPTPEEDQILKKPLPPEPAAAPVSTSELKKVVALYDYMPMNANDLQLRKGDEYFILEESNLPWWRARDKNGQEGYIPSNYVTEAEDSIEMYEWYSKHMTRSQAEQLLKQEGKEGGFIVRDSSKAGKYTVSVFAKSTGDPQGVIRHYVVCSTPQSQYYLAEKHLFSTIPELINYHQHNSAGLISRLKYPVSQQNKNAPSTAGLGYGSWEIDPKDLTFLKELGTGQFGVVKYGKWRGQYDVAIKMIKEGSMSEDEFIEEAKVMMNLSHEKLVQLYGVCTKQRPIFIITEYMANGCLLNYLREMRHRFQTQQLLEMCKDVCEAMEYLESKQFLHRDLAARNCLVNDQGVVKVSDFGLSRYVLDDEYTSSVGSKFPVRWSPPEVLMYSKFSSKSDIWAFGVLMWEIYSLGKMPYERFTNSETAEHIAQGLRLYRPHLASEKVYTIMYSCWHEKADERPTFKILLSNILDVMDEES
Sequence of MAP3K5 (Q99683 whole entry): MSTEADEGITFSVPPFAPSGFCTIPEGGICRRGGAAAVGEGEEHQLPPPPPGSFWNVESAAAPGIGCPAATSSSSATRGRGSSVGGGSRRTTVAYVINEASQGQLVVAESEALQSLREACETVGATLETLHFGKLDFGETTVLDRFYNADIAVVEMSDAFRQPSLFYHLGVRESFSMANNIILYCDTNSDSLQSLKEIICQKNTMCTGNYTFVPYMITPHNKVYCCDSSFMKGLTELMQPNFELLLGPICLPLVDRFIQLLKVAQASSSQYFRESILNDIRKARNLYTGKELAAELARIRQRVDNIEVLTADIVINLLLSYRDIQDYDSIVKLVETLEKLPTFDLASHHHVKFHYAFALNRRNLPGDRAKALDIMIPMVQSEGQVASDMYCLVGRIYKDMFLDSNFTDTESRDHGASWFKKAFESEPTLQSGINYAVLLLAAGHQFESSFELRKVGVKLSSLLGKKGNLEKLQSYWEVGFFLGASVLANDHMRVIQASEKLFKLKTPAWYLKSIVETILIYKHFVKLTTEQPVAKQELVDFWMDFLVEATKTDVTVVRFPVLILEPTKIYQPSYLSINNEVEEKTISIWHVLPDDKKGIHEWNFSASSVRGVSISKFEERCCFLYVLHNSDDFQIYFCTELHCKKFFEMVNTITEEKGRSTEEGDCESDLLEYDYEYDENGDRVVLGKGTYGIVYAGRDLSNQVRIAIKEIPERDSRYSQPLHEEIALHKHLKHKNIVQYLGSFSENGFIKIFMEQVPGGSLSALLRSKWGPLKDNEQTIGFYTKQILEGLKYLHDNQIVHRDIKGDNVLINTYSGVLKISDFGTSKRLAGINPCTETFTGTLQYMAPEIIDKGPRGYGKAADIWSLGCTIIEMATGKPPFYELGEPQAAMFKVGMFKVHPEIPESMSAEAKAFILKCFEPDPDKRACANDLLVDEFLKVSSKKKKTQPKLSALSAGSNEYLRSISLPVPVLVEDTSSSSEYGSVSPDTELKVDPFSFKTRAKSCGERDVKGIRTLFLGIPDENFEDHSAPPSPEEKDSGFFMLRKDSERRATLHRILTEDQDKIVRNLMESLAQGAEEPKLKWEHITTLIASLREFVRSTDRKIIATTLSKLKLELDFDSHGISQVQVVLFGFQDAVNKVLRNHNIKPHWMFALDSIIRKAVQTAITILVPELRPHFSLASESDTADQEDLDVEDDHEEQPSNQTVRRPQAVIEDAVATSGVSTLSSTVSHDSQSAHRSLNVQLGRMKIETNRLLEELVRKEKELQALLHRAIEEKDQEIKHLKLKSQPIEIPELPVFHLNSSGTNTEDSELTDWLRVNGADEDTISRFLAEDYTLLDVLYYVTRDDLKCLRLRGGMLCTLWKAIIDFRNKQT
Sequence of GSK3B (P49841 whole entry): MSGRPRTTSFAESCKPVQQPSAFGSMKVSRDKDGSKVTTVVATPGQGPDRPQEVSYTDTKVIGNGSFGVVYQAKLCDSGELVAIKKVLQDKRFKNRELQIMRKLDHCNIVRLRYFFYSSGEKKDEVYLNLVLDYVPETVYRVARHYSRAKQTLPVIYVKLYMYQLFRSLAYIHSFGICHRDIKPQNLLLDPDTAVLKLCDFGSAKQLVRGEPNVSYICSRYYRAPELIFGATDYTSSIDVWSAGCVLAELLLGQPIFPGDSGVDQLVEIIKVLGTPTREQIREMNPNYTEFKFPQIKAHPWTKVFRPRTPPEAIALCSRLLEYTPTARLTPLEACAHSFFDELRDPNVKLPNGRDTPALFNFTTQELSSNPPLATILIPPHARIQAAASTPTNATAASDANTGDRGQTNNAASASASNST
Sequence of PKR (P19525 whole entry): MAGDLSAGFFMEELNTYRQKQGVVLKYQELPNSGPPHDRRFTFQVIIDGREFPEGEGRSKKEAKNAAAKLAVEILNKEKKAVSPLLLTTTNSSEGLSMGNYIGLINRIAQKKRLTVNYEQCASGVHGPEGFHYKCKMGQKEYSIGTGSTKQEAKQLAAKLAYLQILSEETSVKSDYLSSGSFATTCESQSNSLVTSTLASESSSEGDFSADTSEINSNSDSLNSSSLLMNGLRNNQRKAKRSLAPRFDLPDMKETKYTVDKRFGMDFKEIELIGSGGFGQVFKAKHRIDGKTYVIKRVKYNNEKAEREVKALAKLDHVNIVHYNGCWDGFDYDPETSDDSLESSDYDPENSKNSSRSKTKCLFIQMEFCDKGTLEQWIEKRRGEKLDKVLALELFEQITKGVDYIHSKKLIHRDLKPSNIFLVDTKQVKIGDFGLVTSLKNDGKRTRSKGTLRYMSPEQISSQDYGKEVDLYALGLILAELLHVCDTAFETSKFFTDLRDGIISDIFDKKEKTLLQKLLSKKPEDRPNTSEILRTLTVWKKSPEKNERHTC
Sequence of MAP3K1 (Q13233 whole entry): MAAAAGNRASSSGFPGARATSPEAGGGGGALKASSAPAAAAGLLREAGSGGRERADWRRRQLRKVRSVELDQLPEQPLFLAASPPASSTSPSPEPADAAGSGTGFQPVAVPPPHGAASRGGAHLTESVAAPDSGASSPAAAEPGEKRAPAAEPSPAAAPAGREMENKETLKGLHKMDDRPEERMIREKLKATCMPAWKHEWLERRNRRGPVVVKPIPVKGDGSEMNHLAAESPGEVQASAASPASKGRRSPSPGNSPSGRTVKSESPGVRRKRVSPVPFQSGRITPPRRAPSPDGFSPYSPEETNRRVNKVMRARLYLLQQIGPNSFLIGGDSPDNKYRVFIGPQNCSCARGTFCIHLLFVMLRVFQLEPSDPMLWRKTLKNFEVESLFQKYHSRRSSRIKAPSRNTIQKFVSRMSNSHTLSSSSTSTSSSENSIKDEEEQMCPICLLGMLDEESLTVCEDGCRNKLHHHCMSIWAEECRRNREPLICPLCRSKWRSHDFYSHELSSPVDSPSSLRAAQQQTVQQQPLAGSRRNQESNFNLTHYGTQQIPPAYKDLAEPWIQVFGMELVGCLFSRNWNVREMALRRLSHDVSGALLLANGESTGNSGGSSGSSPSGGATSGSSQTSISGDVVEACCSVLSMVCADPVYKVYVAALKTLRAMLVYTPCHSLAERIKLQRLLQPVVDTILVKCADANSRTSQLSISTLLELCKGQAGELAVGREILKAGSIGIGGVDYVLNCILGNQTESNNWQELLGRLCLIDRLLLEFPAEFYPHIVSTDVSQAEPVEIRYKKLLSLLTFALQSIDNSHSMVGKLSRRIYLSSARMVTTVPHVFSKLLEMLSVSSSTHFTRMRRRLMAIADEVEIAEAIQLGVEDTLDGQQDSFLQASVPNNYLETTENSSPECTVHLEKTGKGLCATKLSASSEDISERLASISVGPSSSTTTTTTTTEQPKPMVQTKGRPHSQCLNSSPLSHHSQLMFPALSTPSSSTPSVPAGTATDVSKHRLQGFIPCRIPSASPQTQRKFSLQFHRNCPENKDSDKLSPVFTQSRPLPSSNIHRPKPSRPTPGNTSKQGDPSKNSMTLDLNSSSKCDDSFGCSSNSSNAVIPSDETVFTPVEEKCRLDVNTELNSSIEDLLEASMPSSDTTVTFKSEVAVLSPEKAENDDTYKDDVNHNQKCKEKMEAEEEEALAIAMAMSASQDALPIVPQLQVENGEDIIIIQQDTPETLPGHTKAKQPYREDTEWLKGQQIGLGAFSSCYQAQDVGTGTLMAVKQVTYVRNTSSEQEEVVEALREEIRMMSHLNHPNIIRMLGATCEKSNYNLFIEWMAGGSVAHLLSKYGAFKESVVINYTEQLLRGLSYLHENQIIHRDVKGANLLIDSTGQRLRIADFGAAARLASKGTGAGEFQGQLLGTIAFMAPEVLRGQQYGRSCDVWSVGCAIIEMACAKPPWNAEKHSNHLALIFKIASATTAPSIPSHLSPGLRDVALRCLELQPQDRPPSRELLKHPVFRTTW
Sequence of CK1g2 (P78368 whole entry): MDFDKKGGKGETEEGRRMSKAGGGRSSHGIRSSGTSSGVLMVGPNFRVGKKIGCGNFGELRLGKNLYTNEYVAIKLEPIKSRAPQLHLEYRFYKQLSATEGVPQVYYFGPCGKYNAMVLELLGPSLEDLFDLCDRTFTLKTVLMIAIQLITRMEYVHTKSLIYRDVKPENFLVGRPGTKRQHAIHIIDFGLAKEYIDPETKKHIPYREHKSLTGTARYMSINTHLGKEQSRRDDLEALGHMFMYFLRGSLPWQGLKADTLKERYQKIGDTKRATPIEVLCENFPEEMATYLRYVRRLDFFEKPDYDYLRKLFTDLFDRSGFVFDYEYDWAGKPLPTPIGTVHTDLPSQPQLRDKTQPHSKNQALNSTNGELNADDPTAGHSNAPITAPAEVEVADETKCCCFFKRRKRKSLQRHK

Cc1ccc(C(=O)Nc2cccc(C(C)(C)C#N)c2)cc1NC(=O)c1cncc(-c2cccs2)c1 [I-6, N-(5-((3-(2-cyanopropan-2-yl)phenyl)carbamoyl)-2-methylphenyl)-5-(thiophen-2-yl)nicotinamide]
inhibition at 1 µM [1]: 6.5%
inhibition at 1 µM [2]: 8.6%
inhibition at 1 µM [3]: -0.4%
inhibition at 1 µM [4]: -10.5%
inhibition at 1 µM [5]: -2.2%
inhibition at 1 µM [6]: 4.9%
inhibition at 1 µM [7]: 9.3%
inhibition at 1 µM [8]: 26.2%
inhibition at 1 µM [9]: 23.9%
inhibition at 1 µM [10]: -26.3%
inhibition at 1 µM [11]: -14.6%
inhibition at 1 µM [12]: -17.8%
inhibition at 1 µM [13]: -21.8%
inhibition at 1 µM [14]: 9.8%
inhibition at 1 µM [15]: -1.2%
inhibition at 1 µM [16]: 10.8%
inhibition at 1 µM [17]: -7.9%
inhibition of kinase labeling [18]: 27%
inhibition at 1 µM [19]: -23.1%
inhibition at 1 µM [20]: 15.9%
inhibition at 1 µM [21]: -15.1%
inhibition at 1 µM [22]: -17.5%
inhibition at 1 µM [23]: -22.9%
inhibition at 1 µM [24]: 3.2%
inhibition at 1 µM [25]: 28.7%
inhibition at 1 µM [26]: 10.7%
inhibition at 1 µM [27]: -31.3%
inhibition of kinase labeling [28]: 4.1%
inhibition at 1 µM [29]: 16.2%
inhibition at 1 µM ([30]; Activation Loop, A375 cells): -12.5%
inhibition at 1 µM ([30]; Lys1, A375 cells): 7.8%
inhibition at 1 µM [31]: -0.3%
inhibition at 1 µM [32]: -35.2%
inhibition at 1 µM ([33]; Activation Loop, A375 cells): -7.9%
inhibition at 1 µM ([33]; Lys1, A375 cells): -38.5%
inhibition of kinase labeling [34]: 24.8%
inhibition at 1 µM [35]: 3.3%
inhibition at 1 µM [36]: -94%
inhibition at 1 µM [37]: 20.7%
inhibition at 1 µM [38]: -18.8%
inhibition of kinase labeling [39]: 11.9%
inhibition of kinase labeling [40]: −3.7%
inhibition at 1 µM [41]: -20.3%
